Assay results taken from US20070149439A1 (priority 2001, published 2007).
Where “and” joins values, the source holds several entries; their conditions need not be identical. Identical values can stand only once. Like-named read-outs stand apart in the source and are kept apart here. Where no end group is shown, it is not given here.

Experiments:
[1] = test system: cerebral cortical precursors of E15.5 rat embryos; experiment: [3H]thymidine incorporation (DNA synthesis) in cerebral hemispheres after transuterine intracerebroventricular injection; assay type: in vivo; conditions: vs vehicle
Method: Transuterine intracerebroventricular injection. Intraventricular injection was done as described. […] Dye enhancement of the ventricles indicated successful injections.
Quantification. Newly synthesized DNA was measured after TCA precipitation. Tissues were homogenized in 10 volumes of distilled water. After reserving aliquots to assess total tissue [^3H]dT uptake, DNA was precipitated with 10% TCA, centrifuged, and washed twice in 10% TCA. Pellets were dissolved and counted along with aliquots by scintillation spectrometry.

PAC1 = biological target: T1, PAC1 (Homo sapiens, UniProt P41586); conditions: higher affinity than PACAP6-38; cited from earlier work
T1 sequence (P41586 21-468): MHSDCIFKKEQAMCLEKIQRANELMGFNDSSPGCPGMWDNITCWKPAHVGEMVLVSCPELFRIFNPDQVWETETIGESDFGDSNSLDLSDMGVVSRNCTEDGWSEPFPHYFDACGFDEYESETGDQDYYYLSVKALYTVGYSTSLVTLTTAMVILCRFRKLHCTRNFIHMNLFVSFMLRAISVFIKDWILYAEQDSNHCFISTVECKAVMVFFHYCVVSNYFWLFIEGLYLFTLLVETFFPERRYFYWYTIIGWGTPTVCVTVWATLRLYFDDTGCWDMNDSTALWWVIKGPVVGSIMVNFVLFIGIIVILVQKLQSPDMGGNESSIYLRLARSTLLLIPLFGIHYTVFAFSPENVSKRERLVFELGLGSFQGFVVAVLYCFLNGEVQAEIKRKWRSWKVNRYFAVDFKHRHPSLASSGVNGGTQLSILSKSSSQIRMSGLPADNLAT

[2] = test system: BrdU-labeled precursors in the CP
Text: (§1) For BrdU immunohistochemistry, E15.5 and E18.5 tissues were fixed in 4% PFA, paraffin-embedded, and sectioned (4 μm) coronally. E20.5 tissues were perfusion-fixed in 2% PFA, cryoprotected, and sectioned at 15 μm. The tissues were immunostained. Then, the tissues were double-labeled with antibodies to neuron specific markers TuJ1 (1:200, Biogenesis, Poole, United Kingdom), tau (1:200, I. Fischer, Med. Coll. Penn.) and MAP2c (1:2000, I. Fischer) or glial markers, vimentin (1:4, Roche) and GFAP (1:1000, Sigma), visualizing with Texas Red for BrdU and FITC for phenotypic markers. TUNEL assay was done according to the manufacturer (Oncor, Gaithersburg, Md.) on sections adjacent to those used for BrdU.
(§2) Transuterine intracerebroventricular injection. Intraventricular injection was done as described. Following anesthesia (ketamine 30 mg per kg/xylazine 3 mg per kg) and laparotomy of E15.5 pregnant dams, 1 μl of vehicle or factors and 0.05% fast green was delivered into the embryonic lateral ventricle through the uterine wall, using drawn capillary pipettes. Dye enhancement of the ventricles indicated successful injections. After closure, dams were injected subcutaneously with markers of DNA synthesis, [^3H]dT (4 μCi/g, NEN) and BrdU (100 μg/g) at 3 h and sacrificed at 4 h. One embryonic hemisphere was assayed for [^3H]dT incorporation and the other for immunohistochemistry.
(§3) For labeling index, the analysis was done in the dorsolateral sector of 3 non-adjacent coronal cortex sections per brain, using a camera lucida (Zeiss, Thornwood, N.Y.) under 400× magnification. For E15.5 sections, BrdU(+) nuclei and total nuclei were scored within a 100 μm×100, μm sector based on the ventricular surface extending to the pial surface. BrdU(+) cells in the CP were counted in centrally located sectors extending 100 μm (E18.5 sections) or 200 μm (E20.5 sections) in the mediolateral dimension.

[3] = test system: VZ precursors of E15.5 rat cortex
Text: as §1, §2, §3

[4] = test system: cortical precursors in culture; conditions: cited from earlier work
[5] = injectant volume 1 μl ICV at E15.5, 4 h

For Nc1ncnc2c1ncn2[C@@H]1O[C@@H]2CO[P@@](O)(=S)O[C@H]2[C@H]1O [Rp-cAMPS], which “% Stimulation of DNA synthesis ([3H]dT incorporation)” value [1, 5] is on record?
Its value is 28.3 ± 3.1 %.

Which results are given for “M65: newly defined PAC1 antagonist derived from sand fly peptide maxadilan”?
% Stimulation of DNA synthesis ([3H]dT incorporation) [1, 5]: 14% and 13.4 ± 4.6 %; % Stimulation of DNA synthesis ([3H]dT incorporation) ([1]; injectant volume 2 μl (twice the dose) ICV at E15.5, 4 h): 20% and 20.1 ± 7.0 %; affinity for PAC1 relative to PACAP6-38 (PAC1): 6 fold

Which “% Stimulation of DNA synthesis ([3H]dT incorporation)” value [1, 5] does the source give for “PACAP6-38: specific PAC1 antagonist (FTDSYSRYRKQMAVKKYLAAVLGKRYKQRVKNK; ends and bridges not checked)” here?
The value was 10±2.2%.

For “Pituitary Adenylate Cyclase-Activating Polypeptide [PACAP]”, which “decrease of DNA synthesis, [3H]dT incorporation into cerebral hemispheres” value ([1]; PACAP 10^-5 M, ICV into E15.5 rat lateral ventricle, four hours later) is on record?
Its value is 24%.

And the “less mitotically labeled (BrdU+) cells in the CP” value ([2]; 3 days (E18.5) after PACAP administration at E15.5)?
Its value is 38%.

And the “less mitotically labeled (BrdU+) cells in the CP” value ([2]; 5 days (E20.5) after PACAP administration at E15.5)?
The value was 33%.

What about the “Labeling Index (LI), BrdU(+) nuclei in VZ” value ([3]; 4 hours after ICV injection at E15.5, n=6/group) of the same compound?
Its value is 26±1.3%.

And the “decrease of Labeling Index / mitotic labeling” value ([3]; 4 hours after ICV injection at E15.5, vs vehicle)?
Its value is 25% and 26%.

And the “effect on proliferative effects of mitogenic IGF-I, bFGF and EGF” value [4]?
Its value is “inhibited proliferative effects”.
